According to a melting point compilation (Tetko et al.; mined from patent text by program, amines drawn as free bases though some values may be those of a salt):

Structure (SMILES)	melting point [°C]
Cc1nn(-c2cccnc2)cc1NC1CC1	104 to 107
CC=CC(=O)Nc1c(C(O)(C(F)(F)F)C(F)(F)F)ccc2ccccc12	216 to 217
CONC1=NC(=O)C(=Cc2cccc(-c3cc(F)c(O)c(C45CC6CC(CC(C6)C4)C5)c3)c2)S1	286 to 288
CCOc1cc2c(cc1S(=O)(=O)c1ccccc1)[C@@H](N1CCCC1=O)[C@H](O)C(C)(C)O2 (relative stereo)	197 to 198
C=C1OC(=NOC(C)=O)C(c2ccccc2)C(=O)N1C(C)(C)C(=O)Nc1cc(Cl)cc(Cl)c1 (configuration not stated)	125 to 127
O=C1Nc2ccccc2N(C(=O)CN2CCCCC2CN2CCCCC2)c2cscc21 (configuration not stated)	190 to 195
Cc1cc(CCC(=O)OC(C)(C)C)cc(-c2nc(=O)c3ccccc3s2)n1	129 to 130
COCC1(C)CCCSc2cc(C#Cc3ccc(C(=O)O)cc3)ccc21 (configuration not stated)	182 to 183
COc1ccc(CCCN(CCCc2ccc(OC)c(OC)c2)C(=O)N(C)O)cc1OC	93 to 94
OCC1CCCN(c2nc(-c3ccccc3)nc3ccccc23)C1 (configuration not stated)	116 to 118
CCn1c(=O)c2c(nc(/C=C/c3ccc(-c4ccccc4)cc3)n2C)n(CC)c1=O	200 to 201
O=C(O)c1ccc(-c2ccccn2)cc1	232 to 234
COc1ccnc(CS(=O)c2nc3cc(OC(F)F)ccc3n2S(=O)(=O)c2ccc(Cl)cc2)c1OC (configuration not stated)	82 to 83
CC(C)[Si](C(C)C)(C(C)C)N1C=C2C=C(Br)OCC3=C2C(=C1)CC3N(C)C (configuration not stated)	119 to 121
C=Cc1cnc(C)c(OC(=O)OCC)c1CSC(=O)OCC	142 to 145
CC1CC2=CC(=O)CCC2C2C(Cl)CC3(C)C(=O)CCC3C12 (configuration not stated)	215
CC(C)n1nc2c(F)cccc2c1-c1ccc(O)cc1O	> 160
COc1ccc(C2CC(=O)N(c3ccccc3)C2)cc1OC (configuration not stated)	104
Cc1cccc(C2CCN(CCCCCC(=O)N3Cc4ccccc4C3)CC2)c1C#N	132
O=Cc1ccc(OCc2ccc3ccccc3n2)cc1	69 to 72
Cc1cccc(N)c1C(=O)Nc1nnn[nH]1	248
COC(=O)c1cc(N)c(F)c(Cl)n1	180 to 183
C=C(c1ccc(Cl)cc1)c1ccc(NC(=O)c2cc(Br)cc(Br)c2O)cc1	181 to 183
Cc1nc(-c2ccccc2)n(-c2ccc(S(N)(=O)=O)cn2)n1	203 to 204
S=C(Nc1ccc(Cl)cn1)N[C@@H]1C[C@@H]1c1ccccc1	190 to 191

Structure (SMILES)	melting point [°C]
O=C1NCCc2c(Cl)cccc21	143 to 148
CCn1c(=O)c2[nH]c(/C=C/c3ccc(C)cc3)nc2n(CC)c1=O	> 280
COc1ccc(-c2nc(C)c(C(=O)OCC[Si](C)(C)C)s2)cc1	80 to 82
O=c1[nH]c2cccnc2n1-c1ccccc1F	195
COCc1ccc2c(c1)C=Cc1cc(C)ccc1C2c1cn(Cc2nc(C(=O)O)cs2)c(=O)[nH]c1=S (configuration not stated)	140
CCCc1c(OCc2ccccc2C(=O)NCCCCc2cccnc2)ccc(C(C)=O)c1O	135 to 139
CC(C)OC(=O)COc1ccc(C(=O)CBr)cc1	60 to 61
CCCCCCCCCCCC(=O)c1ccc(CCOC(C)=O)cc1	32 to 33
Cc1cccc(C)c1NC(=O)CN1CCNCC1CC(N)=O (configuration not stated)	172
CCCCCCCCCCCCCCCCSCC(CNS(=O)(=O)CCCCl)NC(C)=O (configuration not stated)	86 to 88
Cn1ncc2c1-c1c(Sc3ccccc3)sc(C(N)=O)c1CC2	140 to 141
COc1ccc(N2CCN(c3c(C)c(C)c4c(c3C)C(Cc3ccccc3)C(C)(C)O4)CC2)cc1 (configuration not stated)	146 to 148
CNc1c2c(nc3ccccc13)CCCC2=O	116 to 117
O=C1CC2(CCCC2)CC(=O)N1CCCCN(c1ccncc1)n1c2ccccc2c2ccccc21	90 to 92
CCOC(=O)C(Sc1ccc(O)cc1)c1ccc(Br)cc1 (configuration not stated)	55.6
CCCCCCCC[C@H]1C[C@H]1CCCCCCCC(=O)NC(Cc1ccccc1)Cc1ccccc1 (relative stereo)	40 to 45
O=C(CC(=O)C1CC1)c1ccc2snnc2c1	142 to 144
O=C(CC(Cc1ccccc1)C(=O)O)c1ccc(Cl)cc1 (racemic)	137 to 138
O=C(OCCO)c1ncn2c1[C@@H]1CCCN1C(=O)c1sccc1-2	182 to 184
Clc1cc(Cl)c(Oc2nc(Oc3c(Cl)cc(Cl)c(Cl)c3Cl)nc(Oc3c(Cl)cc(Cl)c(Cl)c3Cl)n2)c(Cl)c1Cl	165 to 168
Cc1c2c(c3ccccc3c1O)OCC2c1ccc(C(C)C)cc1 (configuration not stated)	94 to 96
COC(=O)C1OC(c2ccccc2)OCC1(C)C (configuration not stated)	86.5 to 88
O=C1CCCc2sc(CCN3CCC(c4csc5cc(F)ccc45)CC3)cc2N1	191 to 193
Cc1cnc2sc(SCc3ccccc3)nn2c1=O	130 to 132
CCC(Nc1ccc(Br)cc1)n1nnc2ccccc21 (configuration not stated)	132

Structure (SMILES)	melting point [°C]
Cc1c(COc2ccc(-c3ccc(S(=O)(=O)NC(C(=O)O)C(C)C)cc3)cc2)oc2ccc(Br)c(OC(C)C)c12 (configuration not stated)	137 to 140
Nc1nc2c(ncn2COCC=O)c(=O)[nH]1	350
CNC(=S)NS(=O)(=O)c1cc2c(cc1OC)OC(C)(C)C(NC(=O)c1cc(Cl)ccc1OC)C2 (configuration not stated)	234 to 235
CCNC(=O)N1CCN(c2ccc(NC(=O)c3cc(=O)c4cc(F)cc(N5CCN(C)CC5)c4o3)cc2)CC1	236 to 238
CCCCCCCCCCC(=O)c1ccncc1	51 to 52
Cc1cc(C(F)(F)C(F)(F)F)ccc1NC(=O)c1cccc(I)c1C(=O)NC(C)(C)CS(C)(=O)=O	143 to 144
Cc1cccc(NC(=O)NCC(=O)N2[C@@H](C(=O)OC(C)(C)C)C[C@H](CO)[C@H]2c2ccccc2)c1 (racemic)	168
Clc1ccc(-n2ncc3c2-c2ccccc2C3)cc1	128 to 129
O=C(c1c(F)cccc1F)N1COCN(c2ccc(SC(F)F)cc2F)C1=O	77 to 79
N#Cc1cc([N+](=O)[O-])ccc1C=C1C=CN(Cc2ccccc2[N+](=O)[O-])C=C1	193 to 201
OC(=S)c1cc(C(F)(F)F)c(Cl)cc1Cl	112 to 114
CN1C(=O)C2(COc3cc4c(cc32)OCCO4)c2c(OCc3ccccc3)cccc21 (configuration not stated)	198 to 200
COCCOCCOCC(=O)Nc1cc(C(=O)O)cc([N+](=O)[O-])c1	136 to 137
C#CCNC(=O)N1CC(c2cccc(C(F)(F)F)c2)C1	121
CN(C)c1nc(N(C)C)nc(N(C)Cc2ccccc2O)n1	169 to 171
COc1ccc(CCC(O)=S)cc1[N+](=O)[O-]	130 to 132
O=C(O)c1cccc(-c2ccc3c(c2)N(c2cc(Cl)ccc2Cl)CC3)c1	219 to 220
CCn1c(C)nc2nc(-c3ccccc3)c(-c3ccccc3)nc21	178 to 180
CCOC(=O)C(=O)Nc1cc(C#N)cc(NC(=O)C(=O)OCC)c1	189 to 190
N#Cc1cccc(-c2cnco2)n1	148
CCCCC1C(=O)N(C(=O)NCCc2ccc(S(=O)(=O)NC(=O)NC3CCC(C)CC3)cc2)CCC1C (configuration not stated)	131 to 133
O=C1Nc2ccc(-c3cccnc3)cc2C12CCCCC2	232 to 234
CC(=O)Nc1nc(C)c(S(=O)(=O)N(CCO)CCO)s1	204
CCCc1c(O)ccc2oc(Cc3ccc(F)cc3)c(C)c12	121 to 123
COc1cc(C(=O)NS(=O)(=O)c2ccccc2C)ccc1Cn1cc(CCC(=O)N(C)C)c2ccc(CCC(=O)N(C)C)cc21	105 to 109

Structure (SMILES)	melting point [°C]
O=C1Cc2ccccc2N1Nc1ccncc1	221 to 224
O=C1c2ccccc2CN2C(=O)CCC12 (configuration not stated)	105 to 107
COc1cc(C(F)(F)F)cc(Cl)c1-n1nc(C#N)c(SC(C)(F)F)c1N	79
CCc1ccc([N+]([O-])=Cc2ccc(C)cc2)cc1	97 to 99
COC(=O)C=Cc1ccc(OCC(C)=O)cc1	117 to 118
Cc1ccc(S(=O)(=O)N2[C@@H](Cc3nc(C)no3)CC[C@H]2c2ccc(F)cc2)cc1 (racemic)	103
COC(=O)C(=O)c1c(F)c(F)c(OCCOc2ccc3ccccc3c2)c(F)c1F	69 to 71
C=CCOc1nc(N(CC)Cc2cc(Br)ccc2OCc2ccccc2)ccc1C(=O)O	129 to 131
C=CCn1c(C)nc2c3c(ccc21)[C@@H](OCCF)[C@H](OC(=O)C(C)(C)C)[C@@H](c1ccccc1)O3	119
CNc1ccc(C#Cc2cccc(-c3nc(NC)nc4cc(OC)c(OC)cc34)c2)cn1	136 to 138
CNS(=O)(=O)c1sccc1C(C)=O	101 to 103
O=C(Nc1nnn[nH]1)c1c(C(F)(F)F)nc2c(C(F)(F)F)cccc2c1O	> 260
CC1(C)OC=C(CS(=O)(=O)c2ccc(F)cc2)C1=O	159 to 160
CCS(=O)(=O)c1ccc(COc2cccc3c2CN(C2CCC(=O)NC2=O)C3=O)cc1 (configuration not stated)	248 to 250
COc1ccc(C2Sc3c(ccc4ccccc34)N(CCN(C)C)C(=O)C2OC(=O)c2cc(OC)c(OC)c(OC)c2)cc1 (configuration not stated)	189 to 190
CC1(C(=O)O)CCc2c(C(=O)c3ccc(Cl)cc3)cccc21 (configuration not stated)	146 to 150
CC(C)(C)SC(=O)C=CC1C(C(=O)OCc2ccc(F)c(Oc3ccccc3)c2)C1(C)C (configuration not stated)	82
CCOC(=O)Cn1c(=O)n(Cc2ccc(Cl)c(Cl)c2)c(=O)c2c(C)c(Cl)sc21	141 to 145
CCCCc1nc(C(=O)O)c(Sc2ccc(OC)cc2)n1Cc1cc2c(cc1Cl)OCO2	82
COc1ccc(S(=O)(=O)Nc2ccccc2NC(=O)c2ccccc2)cc1	167 to 168
COc1cc2ncc(C#N)c(Nc3ccc(Cl)cc3C)c2cc1OC	227 to 229
CS(=O)(=O)c1ccc(-n2nc(CCCNC(=O)Nc3cccc(C(F)(F)F)c3)cc2-c2ccccc2)cc1	150 to 152
